Source: patent US20090170930A1, “METHODS FOR DIRECTING DIFFERENTIATION OF CLONOGENIC NEURAL STEM CELLS WITH COUMARINS” (THE SECOND MILITARY MEDICAL UNIVERSITY, priority 2006, published 2009)

Columns and labels:
Rat NSCs = assay: NG2 immunocytochemistry cell count: differentiation of NSCs to NG2 positive cells (OPCs); assay type: cell-based; conditions: NSC neurospheres, mean±S.D.
Method: (§1) Rat NSCs isolation and culture were performed as described by Weiss et al (Weiss et al., 1996). Briefly, the cortex of 1- to 2-day-old newborn SD rats were removed and placed into sterile chilled Hank's Balanced Salt Solution. After the meninges were carefully removed, tissues were cut into tiny pieces and gently triturated with a Pasteur pipette at least 10-15 times. The suspended tissue was centrifuged at 500 g for 5 min and the pellets were re-suspended in a proliferation medium (DMEM/F12 nutrient (1:1) with additional 2% B27 (Invitrogen Corporation, Carlsbad, Calif.) supplement and 20 ng/mL bFGF (PeproTech, Rocky Hill, N.J.)). The cells were plated at a density of 50 cells/mL in non-coated […] flasks. Every 4 days, bFGF was added along with a partial medium change. After 7 days in vitro, cells formed floating neurospheres. To subculture NSCs, the neurospheres were centrifuged at 600 g for 5 min when the diameters of neurospheres reached a size of approximately 100-200 μm; they were then re-suspended in fresh medium and mechanically dissociated into single cells. Single cells subsequently were seeded into proliferation medium at a density of 10 cells/mL per flask. This procedure produced a second generation of neurospheres, and additional generations of NSCs were produced using this same procedure.
Neurospheres were plated into 12-well plates on poly-D-lysine coated 35 mm dishes at a density of 10-20 spheres per dish in 1.5 mL medium. 1 hour after plating, compounds were added at a final concentration 100 μM unless otherwise indicated. After 5 days, cells were examined with Phase contrast image or immunocytochemistry.
Identification of the different kinds of cells was performed using indirect immunocytochemistry. Cells on dishes were fixed with 4% paraformaldehyde at room temperature for 20 min and washed three times in succession with 0.01 M PBS for 5 min each time. Cells were then treated with 0.3% Triton 100 containing 10% normal goat serum at room temperature for 30 min (Xu et al., 2006). Cells were then incubated with primary antibodies at 4° C. for 12-16 h and washed three times with 0.01 M phosphate buffered saline (PBS) for 5 min each time. FITC-conjugated secondary antibodies were added to the cells, and the cells were incubated at 37° C. for 40 min. After three 5 min PBS washes, Hochest 33258 nuclear stain was added at room temperature for 10 min, followed by two more 5 min PBS rinses. The dishes were examined by a fluorescence microscopy. The primary antibodies included anti-GFAP (1:200; rabbit; Promega), anti-nestin (1:500; Mouse; Chemicon); anti-NG2(1:200; Mouse; Chemicon), anti-MBP (1:50; Mouse; Chemicon), anti-04 (1:100; Mouse; Chemicon), anti-RIP (1:100; Mouse; Chemicon), anti-olig2 (1:100; rabbit; Abcam). The secondary antibodies were FITC-labeled antibodies to rabbit IgG (1:200) and TRITIC-labeled antibodies to mouse IgG (1:200). Immunostained preparations were examined with an IX70 Olympus microscope equipped for phase contrast and epi-fluorescence. Light from a 75 W xenon arc lamp (AH2-RX, Olympus) passed through filter sets (Chroma) to generate excited light for Hochest 33258, FITC and TRITIC stains. All image acquisitions were finished with computer-controlled CCD (Micromax 5 MHz system, Roper Princeton Instruments) and MetaMorph Imaging System version 3.6 (Universal Imaging Corporation). To determine the number of cells expressing a particular antigen, 100 fields per sample were examined and totaled. Observers without knowledge of the treatment condition counted the numbers of positive cells for NG2, compared to total numbers of progeny of NSCs determined by counting Hochest 33258 staining cell nuclei. Results are given as mean±S.D. of data for six samples from three independent experiments. Statistical analyses were carried out using Student's t-test with SPSS software (Version 10.1). […]

NSCs = assay: Primary compound screen of NSCs, phase contrast morphology; assay type: cell-based, rat; conditions: 100 μM, 5 days, phase contrast microscope
Method: as §1, with “procedure. […]” for “procedure.”

Compound	The ratio of NG2 positive cells of the total cells (%) (Rat NSCs; Dose 1 μM)	The ratio of NG2 positive cells of the total cells (%) (Rat NSCs; Dose 10 μM)	The ratio of NG2 positive cells of the total cells (%) (Rat NSCs; Dose 100 μM)	The ratio of NG2 positive cells of the total cells (%) (Rat NSCs; Dose 1 mM)	The ratio of NG2 positive cells of the total cells (%) (Rat NSCs; Dose 1 μM, listed as daphnoretin)	The ratio of NG2 positive cells of the total cells (%) (Rat NSCs; Dose 10 μM, listed as daphnoretin)	The ratio of NG2 positive cells of the total cells (%) (Rat NSCs; Dose 100 μM, listed as daphnoretin)	The ratio of NG2 positive cells of the total cells (%) (Rat NSCs; Dose 1 mM, listed as daphnoretin)	generation of round bipolar or multipolar morphology cells (probably OPCs) (NSCs)
Isopsoralen	21 ± 1.6	1	1	1					
COc1ccc2ccc(=O)oc2c1 [7-methoxy coumarin]	16.7 ± 2.2	1	1	1					
C[C@@H]1O[C@@H](Oc2ccc3ccc(=O)oc3c2-c2c(O)ccc3ccc(=O)oc23)[C@H](O)[C@H](O)[C@H]1O [Edgeworoside C]	1	1	1	1					
COc1cc2cc(Oc3ccc4ccc(=O)oc4c3)c(=O)oc2cc1O [Daphnoretin]	65 ± 5.3	87 ± 7.5	92 ± 8.6	95 ± 6.9	65±5.3	87±7.5	92±8.6	95±6.9	markedly enhance the generation of round bipolar or multipolar morphology cells
O=c1ccc2cc(O)c(O)cc2o1 [Aesculetin]	53 ± 2.4	63 ± 2.9	68 ± 2.7	75 ± 1.6					
O=c1ccc2ccc(O)cc2o1 [7-hydroxycoumarin]	68 ± 6.5	76 ± 6.6	89 ± 9.3	92 ± 8.7					
O=c1ccc2cc(O[C@@H]3O[C@H](CO)[C@@H](O)[C@H](O)[C@H]3O)c(O)cc2o1 [Esculetin-6-β-D-glucopyranoside]	67 ± 4.6	72 ± 3.5	70 ± 3.9	85 ± 5.2					
COc1cc2oc(=O)cc(-c3ccccc3)c2cc1O [Dalbergin]	1	1	1	1					
O=c1ccc2ccc(Oc3cc4ccc(O)cc4oc3=O)cc2o1 [Edgeworin]	60 ± 2.6	63 ± 2.9	68 ± 3.5	81 ± 3.1					
COc1cc2ccc(=O)oc2cc1O [Scopoletin]	62 ± 5.6	63 ± 6.3	70 ± 6.9	68 ± 6.7					
COc1cc2cc(Oc3ccc4ccc(=O)oc4c3)c(=O)oc2cc1OC [Isodaphnoretin]	15.6 ± 1.8	1	1	1					
COc1cc(O)c2c(=O)cc(-c3ccc(O)cc3)oc2c1 [Genkwanin]	23 ± 2.3	1	1	1					
COc1cc2cc(Oc3ccc4ccc(=O)oc4c3)c(=O)oc2cc1O[C@@H]1O[C@H](CO)[C@@H](O)[C@H](O)[C@H]1O [Daphnoretin-7-O-β-D-glucopyranoside]	1	1	1	1					
